# Assay results: US20070066546A1, “Compositions for the reversible thioesterification of signaling proteins and methods of using same” (priority 2005, published 2007)
# Tests used:
# [1] = tested on: mouse embryonic fibroblast; settings: cited from earlier work
# [2] = tested on: E. coli strain TA4112 (OxyR-null); test: Hydroperoxidase I (HPI) assay in crude extracts of treated OxyR-null bacteria; format: cell-based; settings: OxyR-null cells, 100 μM, 60 min
# Description: (§1) Hydroperoxidase I (HPI) Assay. The peroxidase activity of HPI was measured as described (Hausladen, A. et al. (1996) Cell 86, 719-729), in 50 mM potassium phosphate buffer (pH 7.5) containing 0.1 mM EDTA, 10 mM H2O2, and 0.2 mg/ml o-dianisidine, by measuring the increase in absorbance at 460 nm (Clairborne, A. & Fridovich, I. (1979) Biochemistry 18, 2324-2329). An extinction coefficient of 11.3 mM^−1 cm^−1 was used to calculate the specific activity of HPI ((1993) in Worthington Enzyme Manual: Peroxidase, ed. Worthington, V. (Worthington Biochemical Corporation, Freehold, N.J.)).
# (§2) HPI, the enzyme encoded by the katG gene, protects bacterial cells against hydrogen peroxide-induced stress. E. coli strains RK4936 (wild-type) and TA4112 (OxyR-null) were grown aerobically to an A600 of 0.5 and then treated with 100 μM F094 or avicin D or G for 60 min. Cells were harvested by centrifugation, and the peroxidase activity in crude extracts was determined (see Materials and Methods). Wild-type (RK4936) and OxyR-null (TA4112) strains of bacteria were treated with avicins and assayed for HPI activity.
# [3] = target: OxyR (Escherichia coli, UniProt P0ACQ4); test: In vitro transcription and primer extension with avicin-modified OxyR (katG and oxyS templates); format: biochemical, E. coli; settings: for relative potency as activator of OxyR (in vitro transcriptional activity): comparison between F094, avicin D and avicin G; for OxyR activation as assessed by in vitro transcriptional activation of katG and oxyS: reduced OxyR, strictly anaerobic conditions, avicins:OxyR 1:10-100:1
# Description: Reduction of OxyR. The reduced form of OxyR was generated by addition of a large excess of DTT (200 mM) for 1 h, followed by exhaustive dialysis (25 mM potassium phosphate/250 mM potassiumsulfate/1 mM magnesium sulfate/100 μM DTPA, pH 8) in an anaerobic glove box. Removal of DTT was monitored by the color change after addition of 5,5′-dithionitrobenzoic acid to an aliquot of the dialysis buffer.
# Treatment of OxyR with Avicins. Reduced OxyR was treated with a 10-fold molar excess of F094 or purified avicin D or G to generate avicin-modified OxyR. The reaction was performed under anaerobic conditions for 1 h, followed by dialysis.
# In Vitro Transcription and Primer Extension. In vitro transcription with the various modified forms of OxyR was performed as described (Kim, S. O., et al. (2002) Cell 109, 383-396). Plasmid pBT22 was used as the katG template and pUCOXYS, a plasmid containing the oxyS-coding region cloned into pUC19, was used as the oxyS template. Where indicated, avicin-modified forms of OxyR were reduced with 200 mM DTT. Primer extension assays were performed by using AMV reverse transcriptase (Promega), according to instructions supplied by the manufacturer.
# Avicin modified OxyR was incubated with plasmids containing the katG or oxyS genes followed by primer extension (see Materials and Methods). After primer extension, samples were untreated or treated with DTT before gel analysis. Band intensities were quantified (phosphoimager), and data are plotted at top as percent maximal activation (n=2-3). At bottom, corresponding raw data from an individual experiment are depicted.
# [4] = tested on: E. coli strain RK4936 (wild-type); test: Hydroperoxidase I (HPI) assay in crude extracts of treated wild-type bacteria; format: cell-based; settings: wild-type cells, 100 μM, 60 min
# Description: as §1, §2
# Sequence of OxyR (P0ACQ4 whole entry): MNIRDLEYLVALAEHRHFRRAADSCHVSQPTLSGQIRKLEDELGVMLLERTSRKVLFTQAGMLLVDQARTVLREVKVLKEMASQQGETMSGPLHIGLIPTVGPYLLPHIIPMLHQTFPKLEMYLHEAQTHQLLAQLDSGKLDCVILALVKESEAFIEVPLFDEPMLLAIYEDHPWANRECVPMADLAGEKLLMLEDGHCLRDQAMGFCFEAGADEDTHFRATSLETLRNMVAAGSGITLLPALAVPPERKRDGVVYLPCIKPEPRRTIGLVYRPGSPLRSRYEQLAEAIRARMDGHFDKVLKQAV
Compound,decrease in cyclin D1 protein levels ([1]; NAC treatment),increase in p27 protein levels ([1]; NAC treatment),increase in intracellular low-molecular-weight thiols ([1]; treatment for 12 h),HPI activity [2],relative potency as activator of OxyR (in vitro transcriptional activity) [3],OxyR activation as assessed by in vitro transcriptional activation of katG and oxyS [3],HPI activity [4]
"CC(=O)N[C@@H](CS)C(=O)O [NAC, N-acetyl-L-cysteine]",70%,3-4 fold,6 fold,–,–,–,–
C=C[C@](C)(O)CC/C=C(\CO)C(=O)O[C@H]1[C@H](O)[C@@H](O)[C@H](O[C@@](C)(C=C)CC/C=C(\CO)C(=O)O[C@H]2C[C@]3(C(=O)O[C@@H]4O[C@H](CO)[C@@H](O)[C@H](O)[C@H]4O[C@@H]4O[C@@H](C)[C@H](O[C@@H]5O[C@@H](CO)[C@H](O)[C@H]5O)[C@@H](O[C@@H]5O[C@H](CO)[C@@H](O)[C@H](O)[C@H]5O)[C@H]4O)[C@H](O)C[C@]4(C)C(=CC[C@@H]5[C@@]6(C)CC[C@H](O[C@@H]7O[C@H](CO[C@@H]8O[C@H](C)[C@H](O)[C@H](O)[C@H]8O[C@@H]8OC[C@@H](O)[C@H](O)[C@H]8O)[C@@H](O)[C@H](O)[C@H]7NC(C)=O)C(C)(C)[C@@H]6CC[C@]54C)[C@@H]3CC2(C)C)O[C@@H]1C [avicin D],–,–,–,no increase in activity,more potent activators than avicin G,resulted in OxyR activation,doubled HPI activity
C=C[C@](C)(O)CC/C=C(\C)C(=O)O[C@H]1[C@H](O)[C@@H](O)[C@H](O[C@@](C)(C=C)CC/C=C(\CO)C(=O)O[C@H]2C[C@]3(C(=O)O[C@@H]4O[C@H](CO)[C@@H](O)[C@H](O)[C@H]4O[C@@H]4O[C@@H](C)[C@H](O[C@@H]5O[C@@H](CO)[C@H](O)[C@H]5O)[C@@H](O[C@@H]5O[C@H](CO)[C@@H](O)[C@H](O)[C@H]5O)[C@H]4O)[C@H](O)C[C@]4(C)C(=CC[C@@H]5[C@@]6(C)CC[C@H](O[C@@H]7O[C@H](CO[C@@H]8O[C@H](C)[C@H](O)[C@H](O)[C@H]8O[C@@H]8OC[C@@H](O)[C@H](O)[C@H]8O)[C@@H](O)[C@H](O)[C@H]7NC(C)=O)C(C)(C)[C@@H]6CC[C@]54C)[C@@H]3CC2(C)C)O[C@@H]1C [avicin G],–,–,–,no increase in activity,lower,resulted in OxyR activation,doubled HPI activity
